# Key:
# [1] = Inhibition of human CYP1B1 expressed in HEK293 cells assessed as potentiation of cisplatin-induced cytotoxicity by measuring cisplatin EC50 at 0.018 uM by MTT assay (Rvb = 61 +/- 8 uM)
# [2] = Inhibition of human CYP1B1 expressed in human A2780 cells assessed as potentiation of cisplatin-induced cytotoxicity by measuring cisplatin EC50 at 0.018 uM by MTT assay (Rvb = 40 +/- 4.9 uM)
# [3] = Inhibition of human CYP1B1 expressed in HEK293 cells assessed as potentiation of cisplatin-induced cytotoxicity by measuring cisplatin EC50 at 0.016 uM by MTT assay (Rvb = 61 +/- 8 uM)
# [4] = Inhibition of human CYP1B1 expressed in human A2780 cells assessed as potentiation of cisplatin-induced cytotoxicity by measuring cisplatin EC50 at 0.016 uM by MTT assay (Rvb = 40 +/- 4.9 uM)
# [5] = Inhibition of human CYP1B1 expressed in HEK293 cells assessed as potentiation of cisplatin-induced cytotoxicity by measuring cisplatin EC50 at 0.02 uM by MTT assay (Rvb = 61 +/- 8 uM)
# [6] = Inhibition of human CYP1B1 expressed in human A2780 cells assessed as potentiation of cisplatin-induced cytotoxicity by measuring cisplatin EC50 at 0.02 uM by MTT assay (Rvb = 40 +/- 4.9 uM)
smiles,measurement,setting,value
COc1ccc2cc(C(=O)/C=C/c3cccnc3)ccc2c1,EC50,[1],8.3 µM
same,EC50,[2],3.3 µM
O=c1cc(-c2ccccc2)oc2c1ccc1ccccc12,EC50,[3],40 µM
same,EC50,[4],35 µM
O=C(/C=C/c1ccc2ccccc2c1)c1cccnc1,EC50,[5],1 µM
same,EC50,[6],0.5 µM

# Source: BindingDB's records for doi:10.1016/j.ejmech.2017.02.016 (De Montfort University, 2017)
